Like-named read-outs stand apart in the source and are kept apart here.
How the values were obtained:
[1] = system: patients with asthma requiring treatment with inhaled corticosteroids; experiment: Randomized double-blinded multicenter Phase II study, MDI BID for 4 weeks; format: in vivo
Procedure: In a recently completed, randomized, double-blinded multicenter, Phase II study, 395 patients with asthma requiring treatment with inhaled corticosteroids were randomized to one of the five treatment groups: mometasone furoate (MDI 112 mcg/day, 400 mcg/day or 1000 mcg/day, beclomethasone dipropionate (BDP) 336 mcg/day, or placebo. All treatment regimens consisted of BID dosing for 4 weeks. PROVENTIL inhalation aerosol (albuterol, USP) was supplied as rescue medication.
Efficacy was evaluated by spirometry and by physician and patient evaluation of asthma signs and symptoms. The forced expiratory volume in one second (FEV1), forced vital capacity (FVC), and forced expiratory flow between 25% to 75% (FEF25%−75%) were measured at each visit by the investigator. The peak expiratory flow rate (PEFR) was measured twice daily (AM and PM) by the patient. FEV1 at endpoint of treatment (last evaluable visit) was the primary measure of efficacy. The investigator (at all visits) and the patient (twice daily) rated wheezing, tightness in chest, shortness of breath, and cough on a scale from 0 (None) to 6 (Incapacitating). In addition, the investigator rated the overall condition of asthma on the same scale at each visit, and the patient kept a diary of the total number of asthma attacks each day, the number of night awakenings due to asthma, and the total number of puffs of Proventil (protocol-permitted rescue medication) used. The actual value and changes from Baseline were analyzed for each visit.

plasma cortisol = experiment: Phase I rising single-dose study, aqueous nasal spray suspension, 24-hour plasma cortisol; format: in vivo, healthy male volunteers; details: intranasal single doses 1000, 2000 and 4000 mcg at 11 pm
Procedure: Several Phase I studies have been completed using the aqueous nasal spray suspension formulation of mometasone furoate monohydrate. In a randomized, third party-blinded, placebo-controlled rising single-dose safety and tolerance study, the aqueous nasal spray suspension formulation was administered to eight healthy male volunteers. Doses were administered at 11 pm, and plasma cortisol concentrations were measured during the following 24-hour period.

[2] = system: symptomatic patients with seasonal allergic rhinitis; experiment: Onset of clinical efficacy study, nasal spray, 14 days, total nasal symptom score; format: in vivo
Procedure: The study lasted 14 days in length. Data from 201 patients were used for analysis. a. Signs and symptoms were individually scored by the patient on the diary card, and by the investigator or designee at Screening and Baseline (Day 1), Day 4, Day 8, and Day 15 after treatment. All symptoms (nasal and non-nasal) were rated by the investigator or designee according to the following scale: The overall condition of rhinitis was evaluated by the investigator or designee and patient at the same time as symptoms, and scored according to the following criteria: 3. Drug—Each patient was given a metered nasal pump spray bottle containing either an aqueous suspension of mometasone furoate or placebo. […] After the Baseline visit, each patient was instructed to enter into his/her diary the information about the time of onset of nasal relief and level of nasal symptom relief as no relief, slight, moderate, marked, or complete. At Baseline and each follow-up visit, the physician evaluated the following signs and symptoms of allergic rhinitis, scored as 0=none, 1=mild, 2=moderate, 3=severe. • a. NASAL SYMPTOMS • nasal discharge • congestion/stuffiness • sneezing • itching • b. […] At each follow-up visit post Baseline, the physician and patient evaluated the therapeutic response as 5=no relief, 4=slight relief, 3=moderate relief, 2=marked relief, 1=complete relief. After the Baseline visit, each morning and evening the patient completed a diary to assess the 8 signs and symptoms of allergic rhinitis as described above. The primary efficacy results are based on a survival analysis of the onset times of relief (defined as the first time patient experienced at least moderate relief of nasal symptoms) for the mometasone furoate nasal spray and placebo groups. In this analysis, patients reporting slight or no relief for the first 3 days after treatment were censored at Day 3. Also, results from the patient regular diary (by 15-day average) data were evaluated. Data from 201 patients were used in the survival analysis.

[3] = Aqueous suspension once-a-day in allergic rhinitis (summary statement); format: in vivo
Source text: In treating allergic and non-allergic rhinitis, the aqueous suspension of mometasone furoate may be administered intranasally by inserting an appropriate device (such as the pump spray bottle used to deliver […]® Nasal Spray as well as the spray bottle disclosed in the Schering Corporation Industrial Design Deposit DM/026304 registered Jun. 1, 1993) into each nostril. Active drug is then expelled (nasal spray device) or could be nasally inhaled (sniffed) as a powder. Efficacy is generally assessed in a double blind fashion by a reduction in nasal symptoms (e.g., sneezing, itching, congestion, and discharge). Other objective measurements (e.g., nasal peak flow and resistance) can be used as supportive indices of efficacy. For treatment of allergic and/or inflammatory diseases of the lower airways and lung parenchyma especially diseases such as asthma, chronic obstructive pulmonary disease (“COPD”), granulomatus diseases of the lungs and lower airway passage, non-malignant proliferative disease of the lungs e.g., idiopathic pulmonary fibrosis, hypersensitivity pneumonitis and bronchopulmonary dysplasia the following dosage ranges of mometasone furoate may be used: […] Typically 2-4 mL of the aqueous suspension of mometasone furoate monohydrate may be placed in a plastic nebulizer container and the patient would inhale for 2-10 minutes.

[4] = HPLC/radio-flow metabolite profiling of plasma, urine and fecal extracts after ^3H-MF; format: in vivo, normal healthy male volunteers
Source text: The substantial minimization of the systemic effect of mometasone furoate administered intranasally or by oral inhalation has been measured by High Performance Liquid Chromatography (HPLC) metabolite profiling of plasma radioactivity of mometasone furoate, its substantially complete (>98%) first-pass metabolism in the liver and by a minimal reduction in cortisol secretion levels.
Plasma, urine, expired air filters, Respirgard and fecal samples were collected and assayed for radioactivity content. The limit of quantitation (LOQ) for plasma radioactivity ranged from 0.103 to 0.138 ng eq/ml., except for the nasal spray treatment where the LOQ was 0.025 ng eq/ml. Selected plasma, urine and fecal samples were analyzed for metabolite profiles.
Selected plasma, urine and fecal extracts were analyzed by high performance liquid chromatography (HPLC) with radio-flow monitoring to determine metabolite profiles. […] Approximately 1.5% of the 3 hr. plasma radioactivity was associated with parent drug indicating extensive first past metabolism and rapid inactivation by the liver. In contrast, following intravenous administration, approximately 39% of the 3 hr. plasma radioactivity was associated with parent drug. Approximately 12% and 33% of the 3 hr. plasma radioactivity was associated with parent drug following administration of the MDI and Gentlehaler, respectively. In general, the plasma concentrations of radioactivity following the nasal and oral suspension routes of administration were too low for metabolite profiling.
Hydrolysis of plasma and urine was performed with an enzyme preparation containing both β-glucuronidase and aryl sulfatase. These experiments yielded modest changes in the HPLC metabolite profiles that were consistent with the hydrolytic release of conjugated metabolites.

[5] = system: patients with mild asthma

Q: Which “total asthma scores, assessment of overall condition, therapeutic response” value ([1]; all doses) does the source give for C[C@@H]1C[C@H]2[C@@H]3CCC4=CC(=O)C=C[C@]4(C)[C@@]3(Cl)[C@@H](O)C[C@]2(C)[C@@]1(OC(=O)c1ccco1)C(=O)CCl [mometasone furoate] here?
A: superiority of all mometasone furoate doses relative to placebo

Q: And the “improvement of a.m. PEFR versus BDP” value ([1]; all doses, final week of treatment)?
A: significantly better than 336 mg dose of BDP

Q: And the “FEV1 versus BDP 336 mcg/day” value ([1]; two higher doses (400, 1000 mcg/day), Days 14, 21 and 28)?
A: superior to beclomethasone dipropionate

Q: What about the “FEV1 versus low dose (112 mcg/day)” value ([1]; two higher doses, Day 21 and Day 28) of the same compound?
A: significantly superior to the low mometasone furoate dose

Q: What about the “effect on 24-hour area under the curve plasma cortisol profile (AUC 0-24) compared to placebo” value (plasma cortisol) of the same compound?
A: did not significantly affect

Q: What about the “reduction in total nasal symptom score from baseline” value ([2]; morning & evening averaged diary, 15-days average) of the same compound?
A: statistically significantly higher than that for the placebo group

Q: What about the “median onset time to relief (at least moderate relief of nasal symptoms)” value ([2]; nasal spray 200 mcg once-a-day, survival analysis, placebo 72 hours, log-rank p<0.001) of the same compound?
A: 35.9 h

Q: And the “patients who recorded slight or no relief (censored) at Day 3” value ([2]; of 101 patients, placebo 50 of 100)?
A: 24 patients

Q: What about the “safety and efficacy in allergic rhinitis” value ([3]; 25 up to 1600 micrograms once-a-day) of the same compound?
A: safe and effective

Q: What about the “dose dependence of treatment effect” value ([3]; once-a-day) of the same compound?
A: no improvement in treatment is typically found above 400 micrograms a day

Q: What about the extent of metabolism ([4]; all routes of administration) of the same compound?
A: extensively metabolized

Q: And the “first-pass metabolism in the liver” value ([4]; in vivo)?
A: > 98%

Q: And the “detection of parent drug in plasma by metabolite profiling” value ([4]; intravenous injection or oral solution, not after oral or nasal suspensions)?
A: detectable in plasma by metabolite profiling

Q: And the bioavailability ([4]; male, human, plasma, 1.03 mg/Subject, oral solution, extensive first pass metabolism, read-out: absolute bioavailability of unchanged mometasone furoate)?
A: < 1%

Q: And the “FEV1 compared to placebo” value ([5]; 1 mg/day group, day 1)?
A: statistically significant, clinically meaningful improvement

Q: And the “mean increase in FEV1 versus placebo” value ([5]; 1, 2 and 4 mg/day groups, every time point day 3 to day 28)?
A: statistically significantly greater than for the placebo group

Q: What about the “8 a.m. plasma cortisol” value ([5]; 1000 mcg or 2000 mcg daily, statistically significant compared to placebo) of the same compound?
A: small decreases from Baseline on Days 15 and 21

Q: What about the “8 a.m. plasma cortisol” value ([5]; 4000 mcg daily, statistically different from placebo Day 3 through Day 28) of the same compound?
A: greater decreases in plasma cortisol

Q: And the “increase in FEV1 from Baseline” value ([5]; at a majority of time points)?
A: ≥ 15%

Q: What about the “response to ACTH infusion at post-treatment (Day 30)” value ([5]; in vivo) of the same compound?
A: significant increases from Baseline in plasma cortisol

Q: And the “pulmonary function measured by FEV1” value ([5]; three treated groups, MDI twice daily)?
A: clinically meaningful increases in pulmonary function

— US6956030B2, “Use of mometasone furoate for treating upper airway diseases” (Schering Corporation, priority 1994, dated 2005)
